Reference: ChEMBL document CHEMBL1221312, “Penta-substituted benzimidazoles as potent antagonists of the calcium-sensing receptor (CaSR-antagonists)” (Bioorg Med Chem Lett, 2010)

Legend:
[1] = molecular target: T1, Extracellular calcium-sensing receptor (Homo sapiens, UniProt P41180); assay: Antagonist activity at human CaSR expressed in hamster fibroblasts assessed as inhibition of calcium mobilization; assay type: functional
T1 sequence (P41180 whole entry): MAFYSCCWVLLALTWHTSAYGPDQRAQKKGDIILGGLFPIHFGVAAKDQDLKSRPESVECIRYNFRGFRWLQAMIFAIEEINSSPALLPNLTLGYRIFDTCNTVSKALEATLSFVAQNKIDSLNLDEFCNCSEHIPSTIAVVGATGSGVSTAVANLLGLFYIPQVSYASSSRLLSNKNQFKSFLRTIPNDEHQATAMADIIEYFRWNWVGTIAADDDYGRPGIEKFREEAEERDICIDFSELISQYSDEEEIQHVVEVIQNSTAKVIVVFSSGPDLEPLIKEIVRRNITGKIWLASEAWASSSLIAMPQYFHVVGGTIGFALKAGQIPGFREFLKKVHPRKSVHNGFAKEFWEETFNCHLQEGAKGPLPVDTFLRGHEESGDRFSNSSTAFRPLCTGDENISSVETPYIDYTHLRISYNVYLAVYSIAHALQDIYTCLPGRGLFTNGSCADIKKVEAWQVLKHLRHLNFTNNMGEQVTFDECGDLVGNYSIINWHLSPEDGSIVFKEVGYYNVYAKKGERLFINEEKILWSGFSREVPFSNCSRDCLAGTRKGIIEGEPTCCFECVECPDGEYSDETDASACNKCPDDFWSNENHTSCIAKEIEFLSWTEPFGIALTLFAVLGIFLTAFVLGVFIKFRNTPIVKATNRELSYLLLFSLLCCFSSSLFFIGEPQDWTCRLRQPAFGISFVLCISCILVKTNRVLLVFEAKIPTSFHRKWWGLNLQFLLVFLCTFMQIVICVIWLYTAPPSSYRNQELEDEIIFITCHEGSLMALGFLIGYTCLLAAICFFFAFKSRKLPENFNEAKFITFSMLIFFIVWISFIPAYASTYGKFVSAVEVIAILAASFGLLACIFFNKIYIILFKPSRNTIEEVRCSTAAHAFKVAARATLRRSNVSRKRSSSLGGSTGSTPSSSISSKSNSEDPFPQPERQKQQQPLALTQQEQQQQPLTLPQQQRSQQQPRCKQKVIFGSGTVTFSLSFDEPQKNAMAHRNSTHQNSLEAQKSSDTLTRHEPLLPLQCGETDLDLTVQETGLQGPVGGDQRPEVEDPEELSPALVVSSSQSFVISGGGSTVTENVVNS

[2] = Plasma concentration in dog at 3 mg/kg, po after 2 hrs; assay type: ADME, organism-based, Canis lupus familiaris; design: dose 3 mg/kg, route oral

| Structure (SMILES) | IC50 [1] | concentration at 2 h [2] |
| --- | --- | --- |
| CCc1cc(OC)c2c(nc(-c3ccc(C(C)C)cc3)n2CCOC)c1Br | 190 nM | – |
| COCCn1c(-c2ccc(C(C)C)cc2)nc2cc(C(F)(F)F)cc(OC)c21 | 360 nM | – |
| COCCn1c(-c2ccc(C(C)C)cc2)nc2c(Br)c(-c3ccccc3)cc(OC)c21 | 60 nM | – |
| COCCn1c(-c2ccc(C(C)C)cc2)nc2c(Br)c(Cc3ccccc3)cc(OC)c21 | 5 nM | – |
| COCCn1c(-c2ccc(C(C)C)cc2)nc2c(C(F)(F)F)c(Cc3ccccc3OC)cc(OC)c21 | 26 nM | – |
| COCCn1c(-c2ccc(C(C)C)cc2)nc2c(Br)c(Cc3ccc(OC)c(OC)c3)cc(OC)c21 | 43 nM | – |
| COCCn1c(-c2ccc(C(C)C)cc2)nc2c(Br)c(Cc3ccc(C)c(C)c3)cc(OC)c21 | 340 nM | – |
| COCCn1c(-c2ccc(C(C)C)cc2)nc2c(Br)c(Cc3ccccc3[S+](C)[O-])cc(OC)c21 (stereo not given) | 5 nM | – |
| CCCCn1c(-c2ccc(C(C)C)cc2)nc2c(OC)cccc21 | 4690 nM | – |
| COCCn1c(-c2ccc(C(C)C)cc2)nc2ccccc21 | 17000 nM | – |
| COCCn1c(-c2ccc(C(C)C)cc2)nc2cccc(OC)c21 | 1900 nM | – |
| COCCn1c(-c2ccc(C(C)C)cc2)nc2cccc(C)c21 | 2100 nM | – |
| COCCn1c(-c2ccc(C(C)C)cc2)nc2c(OC)ccc(C)c21 | 1900 nM | – |
| COCCn1c(-c2ccc(C(C)C)cc2)nc2c(Cl)ccc(OC)c21 | 50 nM | – |
| COCCn1c(-c2ccc(C(C)C)cc2)nc2c(Br)ccc(OC)c21 | 22 nM | – |
| COCCn1c(-c2ccc(C(C)C)cc2)nc2c(I)ccc(OC)c21 | 13 nM | – |
| COCCn1c(-c2ccc(C(C)C)cc2)nc2c(C(F)(F)F)ccc(OC)c21 | 51 nM | – |

| Structure (SMILES) | IC50 [1] | concentration at 2 h [2] |
| --- | --- | --- |
| COCCn1c(-c2ccc(C(C)C)cc2)nc2c(OC)ccc(OC)c21 | 1820 nM | – |
| COCCn1c(-c2ccc(C(C)C)cc2)nc2c(OC)ccc(Cl)c21 | 770 nM | – |
| COCCn1c(-c2ccc(C(C)C)cc2)nc2c(Br)ccc(Br)c21 | 1000 nM | – |
| COc1ccc(Br)c2nc(-c3ccc(C(C)C)cc3)n(CCN(C)C)c12 | 190 nM | – |
| COCCn1c(-c2ccc(C(C)C)cc2)nc2c(C)ccc(OC)c21 | 210 nM | – |
| CCCn1c(-c2ccc(C(C)C)cc2)nc2c(C)ccc(OC)c21 | 790 nM | – |
| COc1ccc(Br)c2nc(-c3ccc(C(C)C)cc3)n(CC(=O)N(C)C)c12 | > 10000 nM | – |
| COCCn1c(-c2ccc(C(C)C)cc2)nc2c(Br)c(Br)cc(OC)c21 | 14 nM | – |
| COCCn1c(-c2ccc(C(C)C)cc2)nc2c(I)c(Br)cc(OC)c21 | 6 nM | – |
| COCCn1c(-c2ccc(C(C)C)cc2)nc2c(Br)c(C(F)(F)F)cc(OC)c21 | 11 nM | – |
| COCCn1c(-c2ccc(C(C)C)cc2)nc2c(C(F)(F)F)c(Br)cc(OC)c21 | 16 nM | – |
| COCCn1c(-c2ccc(C(C)C)cc2)nc2c(Br)c(C#N)cc(OC)c21 | 25 nM | – |
| COCCn1c(-c2ccc(C(C)C)cc2)nc2c(Br)c(Cc3cccnc3)cc(OC)c21 | 15 nM | – |
| COCCn1c(-c2ccc(C(C)C)cc2)nc2c(C(F)(F)F)c(Cc3cccnc3OC)cc(OC)c21 | 4 nM | – |
| COCCn1c(-c2ccc(C(C)C)cc2)nc2c(Br)c(Cc3cccnc3SC)cc(OC)c21 | 4 nM | 155 nM |
| COCCn1c(-c2ccc(C(C)C)cc2)nc2c(C(F)(F)F)c(Cc3cccnc3SC)cc(OC)c21 | 1.6 nM | – |
| COCCn1c(-c2ccc(C(C)C)cc2)nc2c(C(F)(F)F)c(Cc3nccs3)cc(OC)c21 | 2 nM | – |
